Reference: ChEMBL document CHEMBL1143254, “Structure-based design of novel 2-amino-6-phenyl-pyrimido[5',4':5,6]pyrimido[1,2-a]benzimidazol-5(6H)-ones as potent and orally active inhibitors of lymphocyte specific kinase (Lck): synthesis, SAR, and in vivo anti-inflammatory activity” (J Med Chem, 2008)
Values after ≈ are worked out from the molar mass of the structure shown.

Tests used:
[1] = target: Proto-oncogene tyrosine-protein kinase Src (Homo sapiens, UniProt P12931); test: Inhibition of Src by HTRF assay
[2] = target: Vascular endothelial growth factor receptor 2 (Homo sapiens, UniProt P35968); test: Inhibition of KDR by HTRF assay
[3] = target: Tyrosine-protein kinase Lck (Homo sapiens, UniProt P06239)
Description: Inhibition of Lck by HTRF assay

Lymphocyte = test: Inhibition of T cell activation in human peripheral blood lymphocytes by mixed lymphocyte reaction; type: functional, cell-based
[4] = target: Mitogen-activated protein kinase 14 (Homo sapiens, UniProt Q16539); test: Inhibition of p38-alpha by HTRF assay
T-cell = test: Inhibition of anti-CD3/CD28-induced IL2 production in human T cells; type: functional, cell-based
[5] = Solubility in simulated intestinal fluid at pH 6.8; type: physicochemical

Sequence of Vascular endothelial growth factor receptor 2 (P35968 whole entry): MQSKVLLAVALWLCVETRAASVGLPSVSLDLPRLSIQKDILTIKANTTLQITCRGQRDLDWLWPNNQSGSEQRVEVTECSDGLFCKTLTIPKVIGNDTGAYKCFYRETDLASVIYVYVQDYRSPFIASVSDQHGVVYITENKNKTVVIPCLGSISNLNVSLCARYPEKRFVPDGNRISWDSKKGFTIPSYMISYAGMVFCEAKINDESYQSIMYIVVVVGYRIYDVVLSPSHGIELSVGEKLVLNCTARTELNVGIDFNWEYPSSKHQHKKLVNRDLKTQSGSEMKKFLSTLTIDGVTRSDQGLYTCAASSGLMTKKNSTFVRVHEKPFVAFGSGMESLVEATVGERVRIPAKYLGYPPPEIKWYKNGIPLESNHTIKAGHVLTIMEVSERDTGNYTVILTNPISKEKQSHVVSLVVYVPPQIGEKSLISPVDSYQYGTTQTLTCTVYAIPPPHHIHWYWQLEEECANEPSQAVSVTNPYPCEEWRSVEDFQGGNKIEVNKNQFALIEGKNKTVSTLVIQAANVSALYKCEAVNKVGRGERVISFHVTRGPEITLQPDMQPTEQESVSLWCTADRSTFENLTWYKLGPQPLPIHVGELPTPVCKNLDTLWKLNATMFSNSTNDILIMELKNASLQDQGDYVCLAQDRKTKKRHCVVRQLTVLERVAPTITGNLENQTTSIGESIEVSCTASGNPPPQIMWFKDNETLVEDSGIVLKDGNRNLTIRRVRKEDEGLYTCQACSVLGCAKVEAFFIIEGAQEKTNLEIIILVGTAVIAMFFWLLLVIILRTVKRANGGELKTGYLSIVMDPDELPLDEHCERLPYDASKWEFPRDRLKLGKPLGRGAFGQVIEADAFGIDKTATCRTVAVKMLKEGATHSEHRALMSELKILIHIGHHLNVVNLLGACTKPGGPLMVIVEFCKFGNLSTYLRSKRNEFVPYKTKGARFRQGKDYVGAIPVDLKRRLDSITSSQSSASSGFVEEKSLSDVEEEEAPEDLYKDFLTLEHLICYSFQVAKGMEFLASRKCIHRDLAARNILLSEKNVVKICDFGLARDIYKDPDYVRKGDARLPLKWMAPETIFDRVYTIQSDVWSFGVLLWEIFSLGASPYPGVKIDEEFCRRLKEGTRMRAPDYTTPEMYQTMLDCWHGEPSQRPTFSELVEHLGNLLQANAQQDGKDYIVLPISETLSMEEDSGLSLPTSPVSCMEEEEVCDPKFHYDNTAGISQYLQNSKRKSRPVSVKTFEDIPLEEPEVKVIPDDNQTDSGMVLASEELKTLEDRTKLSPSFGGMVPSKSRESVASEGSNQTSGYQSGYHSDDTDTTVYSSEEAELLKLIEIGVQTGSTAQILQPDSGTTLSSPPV
Sequence of Tyrosine-protein kinase Lck (P06239 whole entry): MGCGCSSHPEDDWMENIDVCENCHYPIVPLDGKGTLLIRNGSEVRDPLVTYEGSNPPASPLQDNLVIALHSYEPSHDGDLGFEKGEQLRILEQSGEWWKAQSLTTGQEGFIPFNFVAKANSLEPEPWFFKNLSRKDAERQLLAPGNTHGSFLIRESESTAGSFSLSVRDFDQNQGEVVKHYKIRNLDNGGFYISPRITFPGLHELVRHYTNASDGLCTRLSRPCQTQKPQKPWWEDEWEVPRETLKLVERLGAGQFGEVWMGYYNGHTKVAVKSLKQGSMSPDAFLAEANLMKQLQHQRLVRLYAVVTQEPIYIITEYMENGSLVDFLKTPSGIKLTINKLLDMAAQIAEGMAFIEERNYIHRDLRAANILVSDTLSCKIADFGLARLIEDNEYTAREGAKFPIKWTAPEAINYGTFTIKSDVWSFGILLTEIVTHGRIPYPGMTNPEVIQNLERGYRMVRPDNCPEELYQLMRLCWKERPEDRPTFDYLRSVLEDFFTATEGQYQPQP
Sequence of Proto-oncogene tyrosine-protein kinase Src (P12931 2-536 limits assumed): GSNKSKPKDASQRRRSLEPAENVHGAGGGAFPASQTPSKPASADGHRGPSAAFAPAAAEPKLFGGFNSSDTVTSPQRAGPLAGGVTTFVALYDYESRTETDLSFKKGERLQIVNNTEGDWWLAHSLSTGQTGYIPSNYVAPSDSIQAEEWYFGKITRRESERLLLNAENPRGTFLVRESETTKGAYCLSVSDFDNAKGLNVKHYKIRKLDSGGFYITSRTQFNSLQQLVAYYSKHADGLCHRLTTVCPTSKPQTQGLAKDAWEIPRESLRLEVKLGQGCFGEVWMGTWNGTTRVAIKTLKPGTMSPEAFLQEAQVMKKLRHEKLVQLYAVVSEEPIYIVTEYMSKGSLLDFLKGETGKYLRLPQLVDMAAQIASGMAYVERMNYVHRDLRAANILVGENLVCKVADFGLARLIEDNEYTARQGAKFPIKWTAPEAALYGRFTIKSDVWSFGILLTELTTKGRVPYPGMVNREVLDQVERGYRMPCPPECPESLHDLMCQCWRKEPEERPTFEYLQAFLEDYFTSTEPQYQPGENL
Sequence of Mitogen-activated protein kinase 14 (Q16539 whole entry): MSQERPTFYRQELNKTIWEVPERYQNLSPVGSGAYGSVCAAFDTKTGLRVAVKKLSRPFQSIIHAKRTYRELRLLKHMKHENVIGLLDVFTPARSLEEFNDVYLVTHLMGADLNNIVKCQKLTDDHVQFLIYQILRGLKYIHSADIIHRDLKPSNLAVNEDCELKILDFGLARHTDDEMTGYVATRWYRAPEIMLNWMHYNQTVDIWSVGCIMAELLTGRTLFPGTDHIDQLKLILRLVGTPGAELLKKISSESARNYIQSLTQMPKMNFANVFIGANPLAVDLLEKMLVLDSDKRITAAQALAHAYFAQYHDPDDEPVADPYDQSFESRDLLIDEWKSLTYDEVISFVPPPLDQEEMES

IC50 [1] [nM] | IC50 [2] [nM] | IC50 [3] [nM] | IC50 (Lymphocyte) [nM] | IC50 [4] [nM] | IC50 (T-cell) [nM] | solubility [5] [µg/mL] | SMILES
8300 | > 25000 | 4600 | – | – | – | – | CCCCOc1ccc(-n2c(=O)c3cnc(Nc4ccc(N5CCN(C)CC5)cc4)nc3n3c4ccccc4nc23)cc1
440 | 6600 | 28 | 84 | > 10000 | – | – | Cc1cccc(C)c1-n1c(=O)c2cnc(Nc3ccc(OCCN(C)C)cc3)nc2n2c3ccccc3nc12
160 | 7400 | 23 | 510 | > 10000 | 2700 | – | Cc1cccc(C)c1-n1c(=O)c2cnc(Nc3ccc(OCCN4CCN(C)CC4)c(F)c3)nc2n2c3ccccc3nc12
77 | 3300 | 6 | 290 | > 10000 | 610 | > 200 | COc1cc(Nc2ncc3c(=O)n(-c4c(C)cccc4C)c4nc5ccccc5n4c3n2)cc(OC)c1OCCN1CCN(C)CC1
360 | 4200 | – | 100 | > 10000 | 1100 | 155 (≈ 290 µM) | Cc1cccc(C)c1-n1c(=O)c2cnc(Nc3ccc(OCCCN(C)C)cc3)nc2n2c3ccccc3nc12
180 | 5000 | 12 | 140 | > 10000 | 1500 | > 200 | COc1cc(Nc2ncc3c(=O)n(-c4c(C)cccc4C)c4nc5ccccc5n4c3n2)ccc1OCCCN1CCN(C)CC1
210 | 1900 | 27 | 470 | > 10000 | 970 | 15 (≈ 28.7 µM) | COc1cc(Nc2ncc3c(=O)n(-c4c(C)cccc4C)c4nc5ccccc5n4c3n2)cc(OC)c1OC
1000 | > 25000 | 96 | – | – | – | – | Cc1cccc(-n2c(=O)c3cnc(Nc4ccc(N5CCN(C)CC5)cc4)nc3n3c4ccccc4nc23)c1

SMILES | IC50 [1] [nM] | IC50 [2] [nM] | IC50 [3] [nM] | IC50 (Lymphocyte) [nM] | IC50 [4] [nM] | IC50 (T-cell) [nM] | solubility [5] [µg/mL]
COc1cc(Nc2ncnc(-n3c(Nc4c(C)cccc4C)nc4ccccc43)n2)cc(OC)c1OC | – | 4 | 1 | – | 78 | – | –
CN1CCN(c2ccc(Nc3ncc4c(=O)n(-c5c(Cl)cccc5Cl)c5nc6ccccc6n5c4n3)cc2)CC1 | 49 | 530 | 10 | 1100 | – | – | –
